# Assay results: patent US20230304018A1, “COMPOSITIONS AND METHODS FOR ENHANCING WEIGHT LOSS” (The Children's Hospital of Philadelphia, priority 2017, published 2023)
# pIC50: −log10 of the molar value. Where a name gives a salt, the structure may show the parent alone.
# Key:
# JAK2 = JAK2 (Homo sapiens, UniProt O60674); conditions: cited from earlier work
# JAK3 = biological target: T1, JAK3 (Homo sapiens, UniProt P52333); conditions: cited from earlier work
# T1 sequence (P52333 1-1124): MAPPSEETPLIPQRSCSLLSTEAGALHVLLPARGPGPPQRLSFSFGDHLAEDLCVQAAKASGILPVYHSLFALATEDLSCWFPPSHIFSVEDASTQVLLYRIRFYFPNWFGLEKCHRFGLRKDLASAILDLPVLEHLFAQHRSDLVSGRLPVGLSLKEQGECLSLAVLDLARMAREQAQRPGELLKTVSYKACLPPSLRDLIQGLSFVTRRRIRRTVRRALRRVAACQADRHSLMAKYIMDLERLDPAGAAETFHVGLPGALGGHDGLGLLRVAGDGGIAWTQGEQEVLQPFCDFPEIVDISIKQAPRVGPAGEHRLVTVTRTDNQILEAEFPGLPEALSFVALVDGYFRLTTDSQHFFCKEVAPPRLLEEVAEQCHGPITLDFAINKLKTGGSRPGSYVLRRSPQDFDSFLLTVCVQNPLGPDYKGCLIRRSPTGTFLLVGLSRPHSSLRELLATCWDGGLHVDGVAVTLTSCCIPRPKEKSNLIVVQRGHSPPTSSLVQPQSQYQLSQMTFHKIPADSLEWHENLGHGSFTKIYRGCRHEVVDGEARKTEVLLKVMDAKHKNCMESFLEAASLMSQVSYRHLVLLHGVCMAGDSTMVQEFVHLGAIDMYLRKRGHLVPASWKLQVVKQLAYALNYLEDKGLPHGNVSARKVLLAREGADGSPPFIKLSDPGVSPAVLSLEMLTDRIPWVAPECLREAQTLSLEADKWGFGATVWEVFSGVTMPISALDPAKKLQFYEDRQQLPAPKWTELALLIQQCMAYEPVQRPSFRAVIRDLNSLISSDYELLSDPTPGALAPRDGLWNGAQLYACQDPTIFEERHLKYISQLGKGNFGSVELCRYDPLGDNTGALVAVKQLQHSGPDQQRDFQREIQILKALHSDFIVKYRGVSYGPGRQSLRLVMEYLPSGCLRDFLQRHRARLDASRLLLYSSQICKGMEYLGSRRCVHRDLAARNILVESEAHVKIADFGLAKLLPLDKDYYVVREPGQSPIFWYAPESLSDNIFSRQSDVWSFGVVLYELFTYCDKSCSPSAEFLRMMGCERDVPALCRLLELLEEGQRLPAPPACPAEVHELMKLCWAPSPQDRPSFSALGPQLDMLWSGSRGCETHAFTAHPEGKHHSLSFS
# TYK2 = TYK2 (Homo sapiens, UniProt P29597); conditions: cited from earlier work
# JAK1 = JAK1 (Homo sapiens, UniProt P23458); conditions: cited from earlier work
# 19 other tested kinases = conditions: cited from earlier work
# mTOR [1] = biological target: mTOR (Homo sapiens, UniProt P42345); conditions: cited from earlier work
# PKC (Rat brain) = conditions: cited from earlier work
# PI3K isoforms = conditions: cited from earlier work
# [2] = test system: panel of 38 non-JAK kinases; conditions: cited from earlier work
# [3] = test system: Vps34, AKT, PDK1, p70S6K, MEK, ERK, p38, or JNK; conditions: cited from earlier work
# mTOR [4] = biological target: T2, mTOR (Homo sapiens, UniProt P42345+P62942); conditions: cited from earlier work
# T2 construct: endogenous in cells; host or cells: HT-1080 cell line
# Flt3 = biological target: T3, Flt3 (Homo sapiens, UniProt P36888); conditions: cell-free assays; cited from earlier work
# T3 sequence (P36888 27-993): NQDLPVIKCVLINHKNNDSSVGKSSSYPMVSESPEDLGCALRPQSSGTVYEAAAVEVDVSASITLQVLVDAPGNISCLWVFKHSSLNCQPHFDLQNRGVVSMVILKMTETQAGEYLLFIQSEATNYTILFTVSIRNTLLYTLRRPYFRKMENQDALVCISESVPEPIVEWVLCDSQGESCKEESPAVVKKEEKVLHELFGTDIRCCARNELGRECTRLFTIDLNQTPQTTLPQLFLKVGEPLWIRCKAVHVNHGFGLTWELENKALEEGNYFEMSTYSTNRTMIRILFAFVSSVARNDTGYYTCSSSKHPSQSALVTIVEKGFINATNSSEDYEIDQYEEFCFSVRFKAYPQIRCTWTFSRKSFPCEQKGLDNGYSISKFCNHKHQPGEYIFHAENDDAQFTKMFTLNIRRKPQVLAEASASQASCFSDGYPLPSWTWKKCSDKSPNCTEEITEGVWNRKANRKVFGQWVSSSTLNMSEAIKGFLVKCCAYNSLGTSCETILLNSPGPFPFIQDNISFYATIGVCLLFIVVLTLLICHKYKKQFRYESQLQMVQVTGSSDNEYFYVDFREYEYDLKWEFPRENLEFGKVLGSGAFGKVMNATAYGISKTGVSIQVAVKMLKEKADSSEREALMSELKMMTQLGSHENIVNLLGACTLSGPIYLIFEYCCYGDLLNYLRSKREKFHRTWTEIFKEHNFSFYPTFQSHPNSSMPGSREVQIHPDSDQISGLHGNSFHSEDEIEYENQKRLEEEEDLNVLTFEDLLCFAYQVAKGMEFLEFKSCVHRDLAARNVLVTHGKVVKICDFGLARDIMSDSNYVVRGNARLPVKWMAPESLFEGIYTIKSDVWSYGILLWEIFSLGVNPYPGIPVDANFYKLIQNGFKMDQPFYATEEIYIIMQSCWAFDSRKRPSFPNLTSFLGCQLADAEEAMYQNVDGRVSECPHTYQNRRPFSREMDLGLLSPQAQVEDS
# RET = RET (Homo sapiens, UniProt P07949); conditions: cell-free assays; cited from earlier work
# [5] = test system: HSL, STATs, AMPK, mTOR, P62, LC3I/II and SOCS-1 expression; test: Immunoblot analysis on gWAT from control, KO and Tofacitinib treated mice; assay type: in vivo
# Excerpt: To examine the signaling mechanism underlying the rescue, we performed immunoblot analysis on gWAT isolated from control, KO and Tofacitinib treated mice. We evaluated HSL, STATs, AMPK, mTOR, P62, LC3I/II and SOCS-1 expression (FIG. 10C). […]. […]. Over-activation of mTOR indicates inhibition of autophagy/lipophagy as evident by significant accumulation of P62 in CLEC16A KO mice. […].
# [6] = test system: cytokines and chemokine from plasma of Clec16a KO mice; test: Plasma cytokines and chemokines, Mouse Cytokine Array panel; assay type: in vivo
# Excerpt: FIG. 11. […]. The representative graph is quantification of cytokines and chemokine from plasma of Control (Vehicle), KO and KO+Tofacitinib inhibitor treated mice using the Mouse Cytokine Array panel.
# To gain insight in the inflammatory mechanism involved in the development, progression and pathogenesis of various autoimmune diseases, we profiled plasma from control, KO and […] KO mice for cytokines and chemokine using Mouse Cytokine Array panel.
# [7] = test system: UBC-Cre-Clec16a^loxP KO mice; test: Tofacitinib treatment of Clec16a KO mice: fat, weight, survival; assay type: in vivo
# majority of kinases = conditions: tested at 1 μM; cited from earlier work
# STAT3 = conditions: HEL cells; cited from earlier work
# [8] = gWAT immunoblot, CLEC16A KO mice
# Chain of TYK2 (P29597 whole entry): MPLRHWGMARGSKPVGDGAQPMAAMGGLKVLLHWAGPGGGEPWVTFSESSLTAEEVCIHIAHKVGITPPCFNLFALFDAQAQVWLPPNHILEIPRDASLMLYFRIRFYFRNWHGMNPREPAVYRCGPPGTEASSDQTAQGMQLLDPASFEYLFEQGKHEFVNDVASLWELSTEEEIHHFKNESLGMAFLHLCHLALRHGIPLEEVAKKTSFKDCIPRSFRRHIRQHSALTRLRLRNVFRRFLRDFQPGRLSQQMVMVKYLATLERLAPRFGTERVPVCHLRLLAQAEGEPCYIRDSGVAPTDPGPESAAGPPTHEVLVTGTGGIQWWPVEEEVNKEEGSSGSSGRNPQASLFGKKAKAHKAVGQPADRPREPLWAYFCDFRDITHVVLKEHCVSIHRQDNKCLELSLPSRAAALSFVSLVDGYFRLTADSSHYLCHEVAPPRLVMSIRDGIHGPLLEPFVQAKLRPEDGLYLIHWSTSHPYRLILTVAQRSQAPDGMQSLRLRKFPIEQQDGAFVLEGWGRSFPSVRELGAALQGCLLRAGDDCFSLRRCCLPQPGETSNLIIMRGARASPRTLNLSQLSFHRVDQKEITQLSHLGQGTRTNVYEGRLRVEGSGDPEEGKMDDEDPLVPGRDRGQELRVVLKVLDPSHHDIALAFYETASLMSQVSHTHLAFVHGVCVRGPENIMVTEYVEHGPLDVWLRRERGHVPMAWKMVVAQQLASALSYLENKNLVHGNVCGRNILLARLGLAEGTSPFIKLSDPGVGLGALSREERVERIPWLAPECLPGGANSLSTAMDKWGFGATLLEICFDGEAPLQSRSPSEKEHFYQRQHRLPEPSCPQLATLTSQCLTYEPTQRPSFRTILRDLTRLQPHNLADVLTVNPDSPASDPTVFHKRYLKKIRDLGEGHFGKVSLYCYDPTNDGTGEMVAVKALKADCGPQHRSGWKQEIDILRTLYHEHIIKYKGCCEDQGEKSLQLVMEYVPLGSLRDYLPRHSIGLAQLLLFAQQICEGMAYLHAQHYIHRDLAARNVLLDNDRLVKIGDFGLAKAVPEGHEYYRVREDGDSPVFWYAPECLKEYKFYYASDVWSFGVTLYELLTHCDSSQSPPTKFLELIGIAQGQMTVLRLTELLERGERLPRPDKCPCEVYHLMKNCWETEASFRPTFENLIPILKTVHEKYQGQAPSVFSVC
# Chain of JAK2 (O60674 whole entry, species assumed): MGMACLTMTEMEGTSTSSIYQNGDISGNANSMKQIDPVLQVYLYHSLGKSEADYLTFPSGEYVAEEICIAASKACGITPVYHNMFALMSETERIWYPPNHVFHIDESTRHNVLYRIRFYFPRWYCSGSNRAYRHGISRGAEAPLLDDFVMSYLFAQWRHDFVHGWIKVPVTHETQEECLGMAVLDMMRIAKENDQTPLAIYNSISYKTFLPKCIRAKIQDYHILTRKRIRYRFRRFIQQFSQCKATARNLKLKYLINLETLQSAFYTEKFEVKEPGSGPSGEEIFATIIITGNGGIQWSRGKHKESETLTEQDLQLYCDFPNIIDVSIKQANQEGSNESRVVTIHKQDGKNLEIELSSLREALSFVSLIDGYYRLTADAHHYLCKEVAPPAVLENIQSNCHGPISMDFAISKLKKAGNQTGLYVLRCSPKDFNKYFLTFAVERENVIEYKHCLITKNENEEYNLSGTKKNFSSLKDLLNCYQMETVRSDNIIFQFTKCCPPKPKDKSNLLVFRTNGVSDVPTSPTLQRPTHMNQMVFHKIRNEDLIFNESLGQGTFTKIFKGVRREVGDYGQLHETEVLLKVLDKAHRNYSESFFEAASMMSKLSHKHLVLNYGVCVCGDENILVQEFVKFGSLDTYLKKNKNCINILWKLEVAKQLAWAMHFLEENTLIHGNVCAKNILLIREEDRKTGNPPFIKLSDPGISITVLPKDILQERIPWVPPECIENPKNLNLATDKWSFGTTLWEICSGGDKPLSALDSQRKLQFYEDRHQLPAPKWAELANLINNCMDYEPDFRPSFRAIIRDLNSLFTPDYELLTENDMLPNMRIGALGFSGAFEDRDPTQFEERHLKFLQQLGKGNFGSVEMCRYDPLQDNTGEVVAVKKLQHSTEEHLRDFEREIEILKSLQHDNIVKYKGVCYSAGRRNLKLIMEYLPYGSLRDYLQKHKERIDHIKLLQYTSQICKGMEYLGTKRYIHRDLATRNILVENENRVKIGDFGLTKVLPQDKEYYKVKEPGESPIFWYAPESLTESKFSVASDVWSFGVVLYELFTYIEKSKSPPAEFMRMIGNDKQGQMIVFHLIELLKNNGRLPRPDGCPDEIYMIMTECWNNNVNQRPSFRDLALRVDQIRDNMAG
# Chain of JAK1 (P23458 whole entry, species assumed): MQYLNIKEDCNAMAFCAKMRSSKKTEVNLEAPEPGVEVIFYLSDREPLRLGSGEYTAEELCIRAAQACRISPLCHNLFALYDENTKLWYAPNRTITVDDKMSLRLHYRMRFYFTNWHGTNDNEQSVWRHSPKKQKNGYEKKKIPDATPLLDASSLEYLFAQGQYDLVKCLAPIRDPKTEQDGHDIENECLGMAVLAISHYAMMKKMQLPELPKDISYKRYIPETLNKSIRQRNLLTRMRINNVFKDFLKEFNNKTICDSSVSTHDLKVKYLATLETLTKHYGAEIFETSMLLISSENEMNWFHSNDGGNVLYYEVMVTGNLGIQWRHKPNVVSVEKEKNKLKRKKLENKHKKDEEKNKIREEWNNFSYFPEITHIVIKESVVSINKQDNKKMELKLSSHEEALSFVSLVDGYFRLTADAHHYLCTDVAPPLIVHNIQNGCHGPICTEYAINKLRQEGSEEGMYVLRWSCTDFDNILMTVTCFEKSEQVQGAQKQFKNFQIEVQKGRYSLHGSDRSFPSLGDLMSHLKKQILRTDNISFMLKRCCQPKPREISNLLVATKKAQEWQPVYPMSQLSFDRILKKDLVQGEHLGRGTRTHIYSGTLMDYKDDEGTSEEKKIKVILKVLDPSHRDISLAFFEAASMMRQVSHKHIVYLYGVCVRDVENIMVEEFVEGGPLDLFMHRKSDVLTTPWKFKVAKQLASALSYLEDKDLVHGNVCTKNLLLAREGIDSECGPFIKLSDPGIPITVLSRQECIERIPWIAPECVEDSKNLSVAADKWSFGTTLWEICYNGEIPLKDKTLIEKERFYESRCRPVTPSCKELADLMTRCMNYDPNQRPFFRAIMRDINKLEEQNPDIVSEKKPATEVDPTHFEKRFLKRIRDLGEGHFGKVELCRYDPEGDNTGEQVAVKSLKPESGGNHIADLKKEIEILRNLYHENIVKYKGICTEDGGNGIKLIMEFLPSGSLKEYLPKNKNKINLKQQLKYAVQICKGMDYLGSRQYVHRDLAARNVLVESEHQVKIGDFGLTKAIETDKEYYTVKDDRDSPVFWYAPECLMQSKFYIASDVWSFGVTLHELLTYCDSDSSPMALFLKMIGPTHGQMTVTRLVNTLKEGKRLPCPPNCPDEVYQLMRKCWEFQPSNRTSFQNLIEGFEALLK
# T2 sequence (Q9BVC4 whole entry): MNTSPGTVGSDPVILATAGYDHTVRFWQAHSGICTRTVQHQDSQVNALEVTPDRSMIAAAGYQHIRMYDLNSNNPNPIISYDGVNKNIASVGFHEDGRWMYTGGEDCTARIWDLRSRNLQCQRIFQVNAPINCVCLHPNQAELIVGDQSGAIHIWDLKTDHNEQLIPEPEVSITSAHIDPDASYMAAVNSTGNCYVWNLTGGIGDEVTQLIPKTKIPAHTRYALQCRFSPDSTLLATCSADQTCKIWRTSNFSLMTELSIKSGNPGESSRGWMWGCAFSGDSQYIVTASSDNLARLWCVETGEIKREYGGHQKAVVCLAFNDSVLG
# T2 sequence (P62942 2-108): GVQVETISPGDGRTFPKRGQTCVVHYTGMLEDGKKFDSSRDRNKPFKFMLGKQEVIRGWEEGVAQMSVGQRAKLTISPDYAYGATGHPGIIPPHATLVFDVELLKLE
# Chain of RET (P07949 29-1114, species assumed): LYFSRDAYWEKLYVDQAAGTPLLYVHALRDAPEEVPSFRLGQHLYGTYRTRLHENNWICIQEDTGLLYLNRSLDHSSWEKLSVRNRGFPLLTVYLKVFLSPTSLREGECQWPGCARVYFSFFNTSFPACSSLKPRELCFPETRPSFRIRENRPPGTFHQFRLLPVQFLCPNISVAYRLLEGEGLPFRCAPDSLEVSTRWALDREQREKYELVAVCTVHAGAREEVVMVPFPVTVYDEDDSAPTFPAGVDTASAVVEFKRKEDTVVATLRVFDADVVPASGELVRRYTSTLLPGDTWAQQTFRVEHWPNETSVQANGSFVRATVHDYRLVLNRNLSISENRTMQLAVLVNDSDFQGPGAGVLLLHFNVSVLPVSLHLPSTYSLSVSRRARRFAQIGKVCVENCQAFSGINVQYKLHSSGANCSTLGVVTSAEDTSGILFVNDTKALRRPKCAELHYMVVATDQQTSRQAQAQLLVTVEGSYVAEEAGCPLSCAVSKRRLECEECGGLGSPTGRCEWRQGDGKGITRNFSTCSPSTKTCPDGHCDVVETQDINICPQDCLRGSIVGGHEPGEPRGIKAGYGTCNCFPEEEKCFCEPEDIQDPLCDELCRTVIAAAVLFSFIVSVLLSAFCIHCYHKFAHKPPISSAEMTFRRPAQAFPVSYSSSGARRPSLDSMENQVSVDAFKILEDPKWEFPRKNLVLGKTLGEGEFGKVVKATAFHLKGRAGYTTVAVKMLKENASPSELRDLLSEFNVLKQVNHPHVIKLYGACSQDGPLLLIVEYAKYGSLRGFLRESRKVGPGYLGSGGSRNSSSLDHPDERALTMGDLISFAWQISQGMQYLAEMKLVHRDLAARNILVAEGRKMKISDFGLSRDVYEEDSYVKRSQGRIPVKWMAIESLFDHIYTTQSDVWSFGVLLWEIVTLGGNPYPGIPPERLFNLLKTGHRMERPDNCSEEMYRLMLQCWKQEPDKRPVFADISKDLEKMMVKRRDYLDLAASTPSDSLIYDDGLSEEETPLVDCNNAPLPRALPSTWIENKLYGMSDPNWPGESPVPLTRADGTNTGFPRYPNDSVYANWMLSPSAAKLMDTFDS
smiles,measurement,setting,value
Cc1cc(Nc2nc(N[C@@H](C)c3ccc(F)cc3)c(C#N)cc2F)n[nH]1 [AZ 960],pIC50,JAK2,> 8.52
same,selectivity for JAK2 versus JAK3,JAK3,3 fold
CCn1c(C(=O)N(C2CC2)C2CC2)cc2c3c(ncn3C)c(Nc3cc(C)n(C)n3)nc21 [BMS-911543],selectivity for JAK2 versus TYK2,TYK2,65 fold
same,selectivity for JAK2 versus JAK1,JAK1,~350 fold
same,selectivity for JAK2 versus JAK3,JAK3,75 fold
CN1CCN(c2cccc(Nc3nc4c(-c5ccc(S(C)(=O)=O)cc5)cccn4n3)c2)CC1 [CEP33779],selectivity for JAK2 versus TYK2,TYK2,> 800 fold
same,pIC50,JAK2,8.74
same,selectivity for JAK2 versus JAK1,JAK1,> 40 fold
CCS(=O)(=O)N1CCN(c2ccc(Nc3ncc(C(N)=O)c(NC4CC4)n3)cc2)CC1 [Cerdulatinib],pIC50,19 other tested kinases,> 6.70
CO[C@H]1C[C@@H]2CC[C@@H](C)[C@@](O)(O2)C(=O)C(=O)N2CCCC[C@H]2C(=O)O[C@H]([C@H](C)C[C@@H]2CC[C@@H](OCCO)[C@H](OC)C2)CC(=O)[C@H](C)/C=C(\C)[C@@H](O)[C@@H](OC)C(=O)[C@H](C)C[C@H](C)/C=C/C=C/C=C/1C [Everolimus],pIC50,mTOR [1],8.62 to 8.80
N#Cc1ccc(COc2ccc(-c3cccc4nc(NC(=O)C5CC5)nn34)cc2)cn1 [GLPG0634 analogue],pIC50,TYK2,6.94
same,pIC50,JAK2,7.55
same,pIC50,JAK1,8.00
same,pIC50,JAK3,6.09
Cn1c2ccccc2c2c3c(c4c5ccccc5n(CCC#N)c4c21)CNC3=O [Go6976],pIC50,PKC (Rat brain),8.10
COc1ccc(-c2ccc3c(N4CCOCC4)nc(N4C[C@@H](C)O[C@@H](C)C4)nc3n2)cc1CO [KU-0063794],effect on PI3Ks,PI3K isoforms,no effect
CNS(=O)(=O)C[C@H]1CC[C@H](N(C)c2ncnc3[nH]ccc23)CC1 [Oclacitinib],inhibition of a panel of 38 non-JAK kinases,[2],does not inhibit
COc1ccc(-c2cc3c(C)nc(N)nc3n([C@H]3CC[C@H](OCCO)CC3)c2=O)cn1 [PF-04691502],"activity against Vps34, AKT, PDK1, p70S6K, MEK, ERK, p38, or JNK",[3],little activity
CO[C@H]1C[C@@H]2CC[C@@H](C)[C@@](O)(O2)C(=O)C(=O)N2CCCC[C@H]2C(=O)O[C@H]([C@H](C)C[C@@H]2CC[C@@H](OP(C)(C)=O)[C@H](OC)C2)CC(=O)[C@H](C)/C=C(\C)[C@@H](O)[C@@H](OC)C(=O)[C@H](C)C[C@H](C)/C=C/C=C/C=C/1C [Ridaforolimus],pIC50,mTOR [4],9.70
Cc1cnc(Nc2ccc(N3CCN(C)CC3)cc2)nc1Nc1cccc(S(=O)(=O)NC(C)(C)C)c1 [TG101209],pIC50,Flt3,7.60
same,pIC50,RET,7.77
C[C@@H]1CCN(C(=O)CC#N)C[C@@H]1N(C)c1ncnc2[nH]ccc12 [Tofacitinib],autophagy/lipophagy defect,"[5]; gWAT immunoblot (P62), CLEC16A KO mice",rescues
same,SOCS1 expression,[5]; [8],significantly reversed
same,p-STAT1 and p-STAT3,[5]; [8],downregulating the p-STAT1 and p-STAT3 to normal levels comparable to control
same,phosphorylation of ACC,[5]; [8],promoted
same,phosphorylation of mTOR,[5]; [8],reversal
same,upregulated p-AMPK,[5]; [8],significantly reduced
same,phospho-HSL (p-HSL),"[5]; gWAT immunoblot, CLEC16A KO+Tofacitinib mice",significant reversal
same,CLEC16A knockout inflammatory phenotype (cytokines/chemokine levels),"[6]; plasma, KO+Tofacitinib treated mice, FIG. 11",attenuated
same,lipodystrophic (inflammatory) phenotype,[7],partially rescues
same,fat and weight loss,[7]; Tofacitinib treatment,significantly rescued
same,survival,[7]; Tofacitinib treatment,improves
N#CC(=C(/N)Sc1ccccc1N)/C(C#N)=C(\N)Sc1ccccc1N [U0126],up regulated cytokines and chemokines,[6]; plasma of U0126-treated KO mice,reversed
CNC(=O)c1cccc(-c2ccc3c(N4CCOC[C@@H]4C)nc(N4CCOC[C@@H]4C)nc3n2)c1 [Vistusertib],binding to the majority of kinases,majority of kinases,no or weak binding
COc1cc2ncnc(Nc3ccc(O)c(Br)c3)c2cc1OC [WHI-P154],activity against JAK2,JAK2,no activity
same,activity against JAK1,JAK1,no activity
C[C@H](NC(=O)/C(C#N)=C/c1cccc(Br)n1)c1ccccc1 [WP1066],pIC50,STAT3,5.61
CC(C)N(CCC(=O)c1ccc2ccccc2c1)Cc1ccccc1 [ZM 39923 HCl],activity against JAK2,JAK2,almost no activity
